The data set can be described thus: Solubility of the active ingredients in water. Format: physicochemical. The conditions noted are these: thermodynamic from solid. Here is the method: The invention is suitable for active ingredients which have a solubility in water of at least 10 g/l, preferably at least 30 g/l, particularly preferably of at least 50 g/l, especially preferably of at least 100 g/l, 200 g/l, 300 g/l or 400 g/l at 20° C. (solubility in water based on standard methods such as, for example, Pharmeuropa—Technical Guide for the Elaboration of Monographs, 3rd Edition (1999), Chapter IV, Appendix IV (incorporated by reference) with vigorous shaking for 1 min, leaving to stand for 15 min at 20° C. in purified water). These ranges include all intermediate values and subranges.

Each structure is given as a SMILES string. ≈ marks a conversion by molar mass, not a printed value. Where a name gives a salt, the structure may show the parent alone. Read-outs that look alike come from different tables or passages of the source.

The solubility is the concentration that dissolves in the medium under given conditions. Turning to `CNC[C@H](O)c1cccc(O)c1` [Phenylephrine hydrochloride], under “20 °C”, the solubility at 15 min worked out at 500 mg/mL.

The molecule `CC(C)(C)NCC(O)c1cc(O)cc(O)c1` (stereo not drawn) [Terbutaline sulphate] displayed a solubility at 15 min (20 °C) of 500 mg/mL. For `Cn1c(=O)c2[nH]cnc2n(C)c1=O` [Theophylline], the solubility at 15 min (at 20° C., Pharmeuropa Technical Guide method, shaking for 15 min, read-out: solubility in water) amounted to 8.4 mg/mL (≈ 46.6 mM).

These data come from US8465769B2, “Pharmaceutical composition with controlled active ingredient release for active ingredients with good solubility in water” (Evonik Roehm GmbH, priority 2006, dated 2013).
